In patent US20080207665A1, “Alpha-(Aryl-or Heteroaryl-Methyl)-Beta-Piperidinopropanoic Acid Compounds as Orl-1-Receptor Antagonists” (Pfizer Inc., priority 2005, published 2008):
pKi: −log10 of the molar value.

Key:
human ORL1 receptor = biological target: T1, human ORL1 receptor (Homo sapiens, UniProt P41146); test: ORL1-receptor binding assay ([3H]nociceptin, SPA); details: human ORL1 receptor transfected HEK-293 cell membranes, 0.4 nM [3H]nociceptin
T1 construct: purchased PerkinElmer; host or cells: HEK-293
Experimental: The human ORL1 receptor transfected HEK-293 cell membranes (PerkinElmer) were incubated for 45 min at room temperature with 0.4 nM [^3H]nociceptin, 1.0 mg of wheat germ agglutinin(WGA)-coated SPA beads and various concentrations of test compounds in a final volume of 200 μL of 50 mM HEPES buffer pH 7.4 containing 10 mM MgCl2 and 1 mM EDTA. Non-specific binding (NSB) was determined by the addition of 1 μM unlabeled nociceptin. After the reaction, the assay plate was centrifuged at 1,000 rpm for 1 min and then the radioactivity was measured by WALLAC 1450 MicroBeta Trilux.
The compounds of the examples were tested in the ORL1 Receptor Binding assay.

HERG potassium channel = biological target: T2, HERG potassium channel (Homo sapiens, UniProt Q12809); format: binding
T2 construct: expressed in transfected cells; host or cells: HEK-293
Experimental: Cell paste of HEK-293 cells expressing the HERG product was suspended in 10-fold volume of 50 mM Tris buffer adjusted at pH 7.5 at 25° C. with 2 M HCl containing 1 mM MgCl2, 10 mM KCl. The cells were homogenized using a Polytron homogenizer (at the maximum power for 20 seconds) and centrifuged at 48,000 g for 20 minutes at 4° C. The pellet was resuspended, homogenized and centrifuged once more in the same manner. The resultant supernatant was discarded and the final pellet was resuspended (10-fold volume of 50 mM Tris buffer) and homogenized at the maximum power for 20 seconds. The membrane homogenate was aliquoted and stored at −80° C. until use. An aliquot was used for protein concentration determination using a Protein Assay Rapid Kit and ARVO SX plate reader (Wallac). […] Saturation was determined by incubating 20 μl of [^3H]-dofetilide and 160 μl of membrane homogenates (20-30 μg protein per well) for 60 min at room temperature in the absence or presence of 10 μM dofetilide at final concentrations (20 μl) for total or nonspecific binding, respectively. […] Receptor-bound radioactivity was quantified by liquid scintillation counting using Packard LS counter.
For the competition assay, compounds were diluted in 96 well polypropylene plates as 4-point dilutions in semi-log format. […] Receptor-bound radioactivity was quantified by counting Wallac MicroBeta plate counter.

T1 sequence (P41146 whole entry): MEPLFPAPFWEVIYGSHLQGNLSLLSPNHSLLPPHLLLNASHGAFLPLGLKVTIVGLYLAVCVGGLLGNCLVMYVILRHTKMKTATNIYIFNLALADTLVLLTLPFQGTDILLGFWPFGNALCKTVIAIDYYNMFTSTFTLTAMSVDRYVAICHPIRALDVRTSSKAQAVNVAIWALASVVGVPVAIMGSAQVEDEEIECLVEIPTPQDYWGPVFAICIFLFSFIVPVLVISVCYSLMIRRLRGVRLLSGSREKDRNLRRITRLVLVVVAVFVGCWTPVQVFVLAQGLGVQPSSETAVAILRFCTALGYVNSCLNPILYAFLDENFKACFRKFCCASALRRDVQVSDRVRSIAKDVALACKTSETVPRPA
T2 sequence (Q12809 whole entry): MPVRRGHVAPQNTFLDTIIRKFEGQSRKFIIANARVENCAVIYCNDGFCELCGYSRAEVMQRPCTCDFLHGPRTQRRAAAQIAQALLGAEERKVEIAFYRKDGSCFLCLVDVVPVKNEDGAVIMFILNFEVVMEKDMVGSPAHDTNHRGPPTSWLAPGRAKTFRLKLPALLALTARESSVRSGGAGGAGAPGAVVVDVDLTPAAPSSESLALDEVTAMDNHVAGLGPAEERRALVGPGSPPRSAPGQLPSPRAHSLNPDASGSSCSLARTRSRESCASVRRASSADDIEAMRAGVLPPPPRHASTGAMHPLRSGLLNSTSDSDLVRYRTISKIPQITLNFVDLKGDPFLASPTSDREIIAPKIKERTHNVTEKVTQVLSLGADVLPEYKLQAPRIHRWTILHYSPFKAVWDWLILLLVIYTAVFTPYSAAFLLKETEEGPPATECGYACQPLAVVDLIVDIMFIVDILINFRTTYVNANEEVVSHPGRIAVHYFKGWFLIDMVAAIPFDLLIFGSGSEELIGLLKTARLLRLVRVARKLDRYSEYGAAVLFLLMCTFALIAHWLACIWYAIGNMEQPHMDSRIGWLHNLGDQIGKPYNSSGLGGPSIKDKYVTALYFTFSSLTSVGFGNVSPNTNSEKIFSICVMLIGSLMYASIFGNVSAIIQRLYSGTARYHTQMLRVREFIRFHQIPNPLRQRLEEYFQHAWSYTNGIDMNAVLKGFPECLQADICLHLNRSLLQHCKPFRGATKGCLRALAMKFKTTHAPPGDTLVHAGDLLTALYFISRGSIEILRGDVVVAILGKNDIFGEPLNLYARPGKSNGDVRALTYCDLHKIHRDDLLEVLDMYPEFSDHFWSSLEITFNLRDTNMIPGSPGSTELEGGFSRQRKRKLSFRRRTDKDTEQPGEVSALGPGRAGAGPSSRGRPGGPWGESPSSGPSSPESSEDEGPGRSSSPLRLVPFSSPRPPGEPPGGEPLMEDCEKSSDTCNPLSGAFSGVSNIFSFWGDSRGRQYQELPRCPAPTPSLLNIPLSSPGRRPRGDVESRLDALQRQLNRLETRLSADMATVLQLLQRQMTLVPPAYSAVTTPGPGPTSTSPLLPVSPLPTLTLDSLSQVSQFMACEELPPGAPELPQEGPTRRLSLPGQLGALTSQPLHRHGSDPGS

Row | SMILES | pKi (human ORL1 receptor) | activity in the dofetilide binding assay (HERG potassium channel) | predicted HERG potassium channel inhibitory activity (HERG potassium channel)
1 | O=C(O)C(Cc1ccccc1Cl)CN1C2CCC1CC1(C2)OCc2ccc(F)cc21 (stereo not drawn) [Example 8, 2-(2-Chlorobenzyl)-3-(6′-fluoro-3′H,8H-spiro[8-azabicyclo[3.2.1]octane-3,1′-[2]benzofuran]-8-yl)propanoic acid] | 8.47 | – | –
2 | O=C(O)C(Cc1cc(O)ccc1Cl)CN1C2CCC1CC1(C2)OCc2ccc(F)cc21 (stereo not drawn) [Example 10, 2-(2-Chloro-5-hydroxybenzyl)-3-(6′-fluoro-3′H,8H-spiro[8-azabicyclo[3.2.1]octane-3,1′-[2]benzofuran]-8-yl)propanoic acid] | 8.48 | – | –
3 | CN1C(=O)C(CN2CCC3(CCc4ccccc43)CC2)Cc2ccccc21 (stereo not drawn) [Compound (i)] | – | potent activity | high
4 | O=C(O)C(Cc1cc(O)ccc1Cl)CN1C2CCC1CC1(C2)OCCc2cc(F)ccc21 (stereo not drawn) [Example 9, 2-(2-Chloro-5-hydroxybenzyl)-3-(6′-fluoro-3′,4′-dihydro-8H-spiro[8-azabicyclo[3.2.1]octane-3,1′-isochromen]-8-yl)propanoic acid] | 8.92 | – | –
5 | O=C(O)C(Cc1ccccc1Cl)CN1C2CCC1CC1(C2)OCCc2cc(F)ccc21 (stereo not drawn) [Example 7, 2-(2-Chlorobenzyl)-3-(6′-fluoro-3′,4′-dihydro-8H-spiro[8-azabicyclo[3.2.1]octane-3,1′-isochromen]-8-yl)propanoic acid] | 8.89 | – | –
